Source: US20180117082A1, “ANTIFUNGAL COMPOSITION/TREATMENT” (THE UNIVERSITY OF NOTTINGHAM, priority 2015, published 2018)

Experiments:
Zygosaccharomyces bailii = test: Growth inhibition assay on solid medium, spotted serial dilutions; type: cell-based; details: same concentrations as in the combinations, each agent alone (FIG. 2A)
Description: Images were captured after 2 d (YEPD) or 3 d (YNB) growth at 30 C. For growth-inhibition assays on solid medium with R. solani, circular sections of ˜0.5 cm diameter were excised from cultures on PDA and transferred to the centre of fresh plates. Images were captured after 3 d growth at 28 C and the total mycelial area determined using ImageJ and GIMP2 software. Where specified, chemical supplements were included in the solid media.

R. solani = test: Growth inhibition assay in PDB medium (OD600); details: same concentrations as in the combinations (FIG. 6, FIG. 7)
Procedure: (§1) Candida spp. or S. cerevisiae were inoculated from YEPD plates to YEPD broth (composition as above, minus agar) and cultured overnight at 30° C., 120 rev min^−1. Overnight cultures were diluted to OD600˜0.5 and cultured for a further 4 h in fresh YEPD before dilution of these experimental cultures to OD600˜0.01 or ˜0.1 in the same medium. Aliquots (300 μl) of the diluted culture plus any chemical supplements (see above), as specified, were transferred to 48-well plates (Greiner Bio-One). OD600 was monitored continuously in a BioTek Powerwave-XS microplate spectrophotometer, with shaking at 30 C. […] Spores of R. solani or Z. tritici were inoculated from PDA plates to potato dextrose broth (PDB; Fluka) (20,000 spores ml^−1). Aliquots (150 μl) of the diluted culture plus any chemical supplements, as specified, were transferred to 96-well plates (Greiner Bio-one) and cultured over 8 d at 24° C., 120 rev min-1. OD600 was monitored every day in a BioTek EL800 microplate spectrophotometer.

Rhizoctonia solani = test: Growth inhibition assay on solid medium (PDA agar), mycelial outgrowth; type: cell-based; details: 300 μg ml^−1 paromomycin or 15 mM molybdate alone (FIG. 2B)
Procedure: For qualitative growth-inhibition assays with yeasts on solid medium, experimental cultures prepared as described above were adjusted to OD600˜2.0, 0.2, 0.02, 0.002, 0.0002 and the dilution series spotted (4 μl) on to either YEPD agar (above) or yeast nitrogen base (YNB) agar: 0.69% (w/v) yeast nitrogen base without amino acids (Formedium; Norfolk, UK) supplemented with 2% (w/v) D-glucose, 0.06 mg ml^−1 leucine, 0.02 mg ml^−1 histidine, 0.02 mg ml^−1 uracil and 2% (w/v) bacteriological agar (Sigma-Aldrich). Images were captured after 2 d (YEPD) or 3 d (YNB) growth at 30 C. For growth-inhibition assays on solid medium with R. solani, circular sections of ˜0.5 cm diameter were excised from cultures on PDA and transferred to the centre of fresh plates. Images were captured after 3 d growth at 28 C and the total mycelial area determined using ImageJ and GIMP2 software. Where specified, chemical supplements were included in the solid media.

Candida albicans = test: Growth inhibition assay in YEPD broth (OD600); type: cell-based; details: 25 μM chromate, 200 μg ml^−1 paromomycin or 10 μg ml^−1 hygromycin, each alone (FIG. 1A)
Procedure: as §1

Row | Compound | effect on growth, agent alone (Zygosaccharomyces bailii) | inhibitory effect, agent individually (R. solani) | growth-inhibitory effect, agent alone (Rhizoctonia solani) | inhibitory effect on growth, agent alone (Candida albicans)
1 | O=S(=O)(O)c1cc(N=C=S)ccc1C=Cc1ccc(N=C=S)cc1S(=O)(=O)O [DIDS, 4,4′-diisothio-cyanotostilbene-2,2′-disulphonate] | neither agent alone had a significant effect on growth |  |  | 
2 | [Cu] [copper] |  | none of these agents had an inhibitory effect individually |  | 
3 | [O]=[Mo](=[O])([O-])[O-] [molybdate] | neither agent alone had a significant effect on growth |  | neither agent alone had a marked growth-inhibitory effect | 
4 | CCC[C@H](N)C(=O)O [norvaline] |  | none of these agents had an inhibitory effect individually |  | 
5 | NC[C@@H]1O[C@H](O[C@H]2[C@@H](O)[C@H](O[C@@H]3[C@@H](O)[C@H](N)C[C@H](N)[C@H]3O[C@H]3O[C@H](CO)[C@@H](O)[C@H](O)[C@H]3N)O[C@@H]2CO)[C@H](N)[C@@H](O)[C@@H]1O [paromomycin] | neither agent alone had a significant effect on growth |  | neither agent alone had a marked growth-inhibitory effect | no discernible inhibitory effect
6 | O=[Se](=O)(O)O [selenate] |  | none of these agents had an inhibitory effect individually |  | 
7 | CN(C)C(=S)SSC(=S)N(C)C [thiram] |  | none of these agents had an inhibitory effect individually |  | 
